The values below come from article PMC12670426 (Journal of Medicinal Chemistry, 2025).

Like-named read-outs stand apart in the source and are kept apart here.

Experiment [1] deals with T1, human galectin-3C (Gal-3C, C-terminal CRD of galectin-3) (Homo sapiens, UniProt P17931).
T1 construct: only the C-terminal domain was used (Gal-3C); 6xHis tag with TEV protease site (N, cleaved yes); made in house; host or cells: BL21 Escherichia coli (pET-15b)
As to the kind of experiment: Competitive fluorescence polarization assay, Gal-3C. Format: binding. The protocol:
(§1) Our investigation of the structure–activity relationship of N-aryl-N-lactosylamides started with an initial screening of substituted acetanilides (Table ). These compounds can be readily synthesized from a wide range of commercially available substituted anilines. Affinity was evaluated using a fluorescence polarization assay, which enables reliable determination of dissociation constants (K d) between small molecules and galectins. All inhibitors in this series were tested against the two most common human galectins: Gal-1 and Gal-3. Gal-1 is a prototype galectin consisting of a single CRD and was used in full length. In the case of Gal-3, which consists of the C-terminal CRD and N-terminal unfolded region, only the C-terminal domain was used (Gal-3C). Affinities were compared to methyl β-lactoside (β-LacOMe) as a baseline.
(§2) Fluorescence polarization experiments for determining inhibitor affinities were performed using the same instrumentation and settings as described for the direct binding experiments. […] The galectin–probe mixture was subsequently added using a Certus Flex liquid handler (Fritz Gyger AG, Switzerland) to reach a final volume of 5 μL. Anisotropy was measured after 30–60 min incubation at 25 °C. Inhibitor dissociation constants (K d) were calculated using Wang’s exact cubic model for competitive binding implemented in the BindCurve package. Protein and probe concentrations used in these competitive experiments are provided in the Supporting Information.
(§3) Competitive binding was modeled by Wang’s exact cubic model,3 which is written as […]
(§4) r = rmin + (rmax − rmin) 3 (6) […]
(§5) where r, rmin and rmax have the same meaning as in Equation 1. The coefficients a, b, and c are […]
(§6) a = Kd∗ + Kd + [L∗]T + [L]T − [R]T (7) b = Kd∗([L]T − [R]T) + Kd([L∗]T − [R]T) + Kd∗ Kd (8) […]
(§7) where Kd∗ is the dissociation constant of the probe, Kd is the dissociation constant of the […]
(§8) the unlabeled ligand, and [R]T is the total concentration of the receptor. The angle θ is defined […]
(§9) In the competitive binding experiments, the values of [L∗]T, [R]T and Kd∗ are known and [L]T is titrated. The values of minimal and maximal anisotropy rmin and rmax were fixed during fitting at the values of the minimal and maximal asymptotes obtained from the direct binding experiments. The value of Kd was calculated as the only unfixed parameter in the model.
(§10) Experimental constants used for the competitive fluorescence polarization experiments are […]
(§11) Table S2. Experimental constants used for competitive fluorescence polarization experiments. […]

Experiment [2] concerns the target T2, human galectin-1 (Gal-1, full length) (Homo sapiens, UniProt P09382).
T2 construct: Gal-1 is a prototype galectin consisting of a single CRD and was used in full length; 6xHis tag with TEV protease site (N, cleaved yes); made in house; host or cells: BL21 Escherichia coli (pET-15b)
As to the kind of experiment: Competitive fluorescence polarization assay, Gal-1. In kind it is binding. The protocol:
as §1, §2, §3, §4, §5, §6, §7, §8, §9, §10, §11
For orientation: Fluorescence polarisation rises when a labelled molecule tumbles more slowly, as on binding a larger partner.

[3] abbreviates: CSV supplement, unrounded mean, read-out: Gal3C_IC50_mean_uM.
Setting [4] is: CSV supplement, unrounded mean, read-out: Gal3C_Kd_mean_uM.
The mark [5] stands for this setting: competitive fluorescence polarization, mean ± SD, read-out: Kd Gal-3C.
[6] abbreviates: four-parameter logistic model, mean ± SD, read-out: IC50 Gal-3C.
[7] abbreviates: CSV supplement, unrounded mean, read-out: Gal1_IC50_mean_uM.
Setting [8] is: CSV supplement, unrounded mean, read-out: Gal1_Kd_mean_uM.
[9] abbreviates: competitive fluorescence polarization, mean ± SD, read-out: Kd Gal-1.
[10] abbreviates: four-parameter logistic model, mean ± SD, read-out: IC50 Gal-1.

T2 sequence (P09382 2-135): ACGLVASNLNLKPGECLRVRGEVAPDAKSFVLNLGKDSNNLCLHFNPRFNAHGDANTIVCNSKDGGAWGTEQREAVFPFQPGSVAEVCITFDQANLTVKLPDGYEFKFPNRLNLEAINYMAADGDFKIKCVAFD
T1 sequence (P17931 118-248 limits assumed): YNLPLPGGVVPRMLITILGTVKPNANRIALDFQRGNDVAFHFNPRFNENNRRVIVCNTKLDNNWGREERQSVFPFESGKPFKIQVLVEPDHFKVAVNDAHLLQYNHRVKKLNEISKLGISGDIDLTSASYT

On to `CC(=O)N(c1ccccc1)[C@@H]1O[C@H](CO)[C@@H](O[C@@H]2O[C@H](CO)[C@H](O)[C@H](O)[C@H]2O)[C@H](O)[C@H]1O` [Compound 3a, N-[4-O-(β-D-Galactopyranosyl)-β-D-glucopyranosyl]-N-phenylacetamide], for which the IC50 in experiment [1] (setting [3]) was 287 µM; in experiment [1] (setting [6]) it was 290 ± 1 µM; in experiment [2] (setting [7]) it was 908 µM; in experiment [2] (setting [10]), 910 ± 20 µM. The Kd in experiment [1] (setting [4]) stood at 106 µM; in experiment [1] (setting [5]) it was 110 ± 30 µM; in experiment [2] (setting [8]) it was 586 µM; in experiment [2] (setting [9]) it was 590 ± 80 µM. Further, the “improvement in affinity toward Gal-3C compared to β-LacOMe” value in experiment [1] (compared to β-LacOMe) is “approximately 2 fold”. The “improvement in affinity toward Gal-1 compared to β-LacOMe” value in experiment [2] (compared to β-LacOMe) is “approximately 2 fold”.
As to `CC(=O)N(c1cccc(-c2cn(C)nn2)c1)[C@@H]1O[C@H](CO)[C@@H](O[C@@H]2O[C@H](CO)[C@H](O)[C@H](O)[C@H]2O)[C@H](O)[C@H]1O` [Compound 3aa, N-[4-O-(β-D-Galactopyranosyl)-β-D-glucopyranosyl]-N-[3-(1-methyl-1H-1,2,3-triazol-4-yl)phenyl]acetamide], the IC50 in experiment [1] (setting [3]) came out at 191 µM; in experiment [1] (setting [6]), 190 ± 9 µM; in experiment [2] (setting [7]) it was 899 µM; in experiment [2] (setting [10]), 900 ± 100 µM. For the same compound, the Kd in experiment [1] (setting [4]) amounted to 68.7 µM; in experiment [1] (setting [5]), 69 ± 20 µM; in experiment [2] (setting [8]), 571 µM; in experiment [2] (setting [9]) it was 570 ± 60 µM.
Turning to `CC(=O)N(c1cc(Cl)cc(C(=O)O)c1)[C@@H]1O[C@H](CO)[C@@H](O[C@@H]2O[C@H](CO)[C@H](O)[C@H](O)[C@H]2O)[C@H](O)[C@H]1O` [Compound 3ab, N-[4-O-(β-D-Galactopyranosyl)-β-D-glucopyranosyl]-N-(3-carboxy-5-chlorophenyl)acetamide], the IC50 was found to be 130 µM in experiment [1] (setting [3]), 130 ± 3 µM in experiment [1] (setting [6]), 957 µM in experiment [2] (setting [7]) and 960 ± 40 µM in experiment [2] (setting [10]). The Kd in experiment [1] (setting [4]) amounted to 50 µM; in experiment [1] (setting [5]), 50 ± 9 µM; in experiment [2] (setting [8]), 651 µM; in experiment [2] (setting [9]) it was 650 ± 100 µM.
Take `CC(=O)N(c1cc(Br)cc(C(=O)O)c1)[C@@H]1O[C@H](CO)[C@@H](O[C@@H]2O[C@H](CO)[C@H](O)[C@H](O)[C@H]2O)[C@H](O)[C@H]1O` [Compound 3ac, N-[4-O-(β-D-Galactopyranosyl)-β-D-glucopyranosyl]-N-(3-bromo-5-carboxyphenyl)acetamide]: the IC50 in experiment [1] (setting [3]) came to 160 µM; in experiment [1] (setting [6]), 160 ± 20 µM; in experiment [2] (setting [7]), 967 µM; in experiment [2] (setting [10]), 970 ± 30 µM. Besides, the Kd in experiment [1] (setting [4]) turned out to be 60.2 µM; in experiment [1] (setting [5]) it was 60 ± 10 µM; in experiment [2] (setting [8]), 625 µM; in experiment [2] (setting [9]), 630 ± 100 µM.
Consider `COC(=O)c1cc(N(C(C)=O)[C@@H]2O[C@H](CO)[C@@H](O[C@@H]3O[C@H](CO)[C@H](O)[C@H](O)[C@H]3O)[C@H](O)[C@H]2O)c2cc[nH]c2c1` [Compound 3ae, N-[4-O-(β-D-Galactopyranosyl)-β-D-glucopyranosyl]-N-[6-(methylcarboxy)-1H-indol-4-yl]acetamide], for which the IC50 amounted to 42.5 µM in experiment [1] (setting [3]), 43 ± 4 µM in experiment [1] (setting [6]), 1030 µM in experiment [2] (setting [7]) and 1000 ± 100 µM in experiment [2] (setting [10]). Besides, the Kd in experiment [1] (setting [4]) was found to be 15.9 µM; in experiment [1] (setting [5]) it was 16 ± 2 µM; in experiment [2] (setting [8]), 637 µM; in experiment [2] (setting [9]) it was 640 ± 90 µM.
Consider `CC(=O)N(c1ccc(C)cc1)[C@@H]1O[C@H](CO)[C@@H](O[C@@H]2O[C@H](CO)[C@H](O)[C@H](O)[C@H]2O)[C@H](O)[C@H]1O` [Compound 3b, N-[4-O-(β-D-Galactopyranosyl)-β-D-glucopyranosyl]-N-(4-methylphenyl)acetamide], for which the IC50 in experiment [1] (setting [3]) came out at 404 µM; in experiment [1] (setting [6]) it was 400 ± 50 µM; in experiment [2] (setting [7]), 919 µM; in experiment [2] (setting [10]) it was 920 ± 90 µM. Also, the Kd in experiment [1] (setting [4]) amounted to 133 µM; in experiment [1] (setting [5]), 130 ± 20 µM; in experiment [2] (setting [8]), 481 µM; in experiment [2] (setting [9]), 480 ± 100 µM.
Regarding `C#Cc1cccc(N(C(C)=O)[C@@H]2O[C@H](CO)[C@@H](O[C@@H]3O[C@H](CO)[C@H](O)[C@H](O)[C@H]3O)[C@H](O)[C@H]2O)c1` [Compound 3c, N-[4-O-(β-D-Galactopyranosyl)-β-D-glucopyranosyl]-N-(3-ethynylphenyl)acetamide], the IC50 in experiment [1] (setting [3]) came to 500 µM; in experiment [1] (setting [6]), 500 ± 30 µM; in experiment [2] (setting [7]) it was 1570 µM; in experiment [2] (setting [10]) it was 1600 ± 300 µM. In addition, the Kd in experiment [1] (setting [4]) amounted to 182 µM; in experiment [1] (setting [5]), 180 ± 50 µM; in experiment [2] (setting [8]), 1010 µM; in experiment [2] (setting [9]) it was 1000 ± 70 µM.
Consider `CC(=O)N(c1cccc(C(F)(F)F)c1)[C@@H]1O[C@H](CO)[C@@H](O[C@@H]2O[C@H](CO)[C@H](O)[C@H](O)[C@H]2O)[C@H](O)[C@H]1O` [Compound 3d, N-[4-O-(β-D-Galactopyranosyl)-β-D-glucopyranosyl]-N-(3-trifluoromethylphenyl)acetamide], for which the IC50 in experiment [1] (setting [3]) is 489 µM; in experiment [1] (setting [6]) it was 490 ± 60 µM; in experiment [2] (setting [7]) it was 1040 µM; in experiment [2] (setting [10]) it was 1000 ± 90 µM. Further, the Kd worked out at 160 µM in experiment [1] (setting [4]), 160 ± 30 µM in experiment [1] (setting [5]), 560 µM in experiment [2] (setting [8]) and 560 ± 100 µM in experiment [2] (setting [9]).
Turning to `CC(=O)N(c1ccc(F)cc1)[C@@H]1O[C@H](CO)[C@@H](O[C@@H]2O[C@H](CO)[C@H](O)[C@H](O)[C@H]2O)[C@H](O)[C@H]1O` [Compound 3e, N-[4-O-(β-D-Galactopyranosyl)-β-D-glucopyranosyl]-N-(4-fluorophenyl)acetamide], the IC50 is 275 µM in experiment [1] (setting [3]), 270 ± 10 µM in experiment [1] (setting [6]), 595 µM in experiment [2] (setting [7]) and 590 ± 70 µM in experiment [2] (setting [10]). Further, the Kd was determined as 87.1 µM in experiment [1] (setting [4]), 87 ± 10 µM in experiment [1] (setting [5]), 322 µM in experiment [2] (setting [8]) and 320 ± 100 µM in experiment [2] (setting [9]).
As to `CC(=O)N(c1cccc(F)c1)[C@@H]1O[C@H](CO)[C@@H](O[C@@H]2O[C@H](CO)[C@H](O)[C@H](O)[C@H]2O)[C@H](O)[C@H]1O` [Compound 3f, N-[4-O-(β-D-Galactopyranosyl)-β-D-glucopyranosyl]-N-(3-fluorophenyl)acetamide], the IC50 in experiment [1] (setting [3]) is 305 µM; in experiment [1] (setting [6]) it was 300 ± 50 µM; in experiment [2] (setting [7]), 671 µM; in experiment [2] (setting [10]) it was 670 ± 30 µM. In addition, the Kd in experiment [1] (setting [4]) is 98.1 µM; in experiment [1] (setting [5]) it was 98 ± 3 µM; in experiment [2] (setting [8]), 361 µM; in experiment [2] (setting [9]), 360 ± 20 µM.
`CC(=O)N(c1ccccc1F)[C@@H]1O[C@H](CO)[C@@H](O[C@@H]2O[C@H](CO)[C@H](O)[C@H](O)[C@H]2O)[C@H](O)[C@H]1O` [Compound 3g, N-[4-O-(β-D-Galactopyranosyl)-β-D-glucopyranosyl]-N-(2-fluorophenyl)acetamide]: the IC50 stood at 282 µM in experiment [1] (setting [3]), 280 ± 20 µM in experiment [1] (setting [6]), 931 µM in experiment [2] (setting [7]) and 930 ± 8 µM in experiment [2] (setting [10]). Further, the Kd is 93.2 µM in experiment [1] (setting [4]), 93 ± 20 µM in experiment [1] (setting [5]), 507 µM in experiment [2] (setting [8]) and 510 ± 30 µM in experiment [2] (setting [9]).
For `CC(=O)N(c1ccc(F)c(F)c1)[C@@H]1O[C@H](CO)[C@@H](O[C@@H]2O[C@H](CO)[C@H](O)[C@H](O)[C@H]2O)[C@H](O)[C@H]1O` [Compound 3h, N-[4-O-(β-D-Galactopyranosyl)-β-D-glucopyranosyl]-N-(3,4-difluorophenyl)acetamide], the IC50 came out at 284 µM in experiment [1] (setting [3]), 280 ± 100 µM in experiment [1] (setting [6]), 597 µM in experiment [2] (setting [7]) and 600 ± 20 µM in experiment [2] (setting [10]). Moreover, the Kd came out at 127 µM in experiment [1] (setting [4]), 130 ± 80 µM in experiment [1] (setting [5]), 399 µM in experiment [2] (setting [8]) and 400 ± 20 µM in experiment [2] (setting [9]).
